Assay results as given in PubChem BioAssay AID2060899 (Molecular Pharmacology Branch, DTP, NCI, 2025).
pIC50: −log10 of the molar value.

System: 565726-208-R1-J5-PDC complex spheroids, growth inhibition
Test: Anticancer human tumor 565726-208-R1-J5-PDC patient-derived pancreatic adenocarcinoma cell line growth inhibition [RAS]
Settings: for pIC50: curve of first compound; for viability, T/C: stronger effect = lower value
Procedure, shortened: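 Tumour cells grown as complex spheroids with HUVEC endothelial cells and mesenchymal stem cells, treated with RAS pathway inhibitor combinations. Each agent spans half-log steps from near clinical Cmax, or 10 microM where Cmax is unknown.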

[1] = second compound 0.000949 µM, first compound 0.0316 µM
[2] = second compound 0.000949 µM, first compound 0.1 µM
[3] = second compound 0.000949 µM, first compound 0.316 µM
[4] = second compound 0.000949 µM, first compound 1 µM
[5] = second compound 0.000949 µM, first compound 3.16 µM
[6] = second compound 0.000949 µM, first compound 10 µM
[7] = second compound 0.003 µM, first compound 0.0316 µM
[8] = second compound 0.003 µM, first compound 0.1 µM
[9] = second compound 0.003 µM, first compound 0.316 µM
[10] = second compound 0.003 µM, first compound 1 µM
[11] = second compound 0.003 µM, first compound 3.16 µM
[12] = second compound 0.003 µM, first compound 10 µM
[13] = second compound 0.00949 µM, first compound 0.0316 µM
[14] = second compound 0.00949 µM, first compound 0.1 µM
[15] = second compound 0.00949 µM, first compound 0.316 µM
[16] = second compound 0.00949 µM, first compound 1 µM
[17] = second compound 0.00949 µM, first compound 3.16 µM
[18] = second compound 0.00949 µM, first compound 10 µM
[19] = second compound 0.03 µM, first compound 0.0316 µM
[20] = second compound 0.03 µM, first compound 0.1 µM
[21] = second compound 0.03 µM, first compound 0.316 µM
[22] = second compound 0.03 µM, first compound 1 µM
[23] = second compound 0.03 µM, first compound 3.16 µM
[24] = second compound 0.03 µM, first compound 10 µM
[25] = second compound 0.0949 µM, first compound 0.0316 µM
[26] = second compound 0.0949 µM, first compound 0.1 µM
[27] = second compound 0.0949 µM, first compound 0.316 µM
[28] = second compound 0.0949 µM, first compound 1 µM
[29] = second compound 0.0949 µM, first compound 3.16 µM
[30] = second compound 0.0949 µM, first compound 10 µM
[31] = second compound 0.3 µM, first compound 0.0316 µM
[32] = second compound 0.3 µM, first compound 0.1 µM
[33] = second compound 0.3 µM, first compound 0.316 µM
[34] = second compound 0.3 µM, first compound 1 µM
[35] = second compound 0.3 µM, first compound 3.16 µM
[36] = second compound 0.3 µM, first compound 10 µM
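Note: spheroids exposed to compounds for seven days before readout.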
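Throughout, for viability, T/C: 100% = DMSO vehicle control viability.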

Q: `CCC(CC)c1cc(NC2CCC(N)C2)n2nccc2n1` (centres undefined) + CCn1c(-c2cc(N3CCN(C)CC3)cnc2C(C)OC)c2c3cc(ccc31)-c1csc(n1)CC(NC(=O)C1CC1C)C(=O)N1CCCC(N1)C(=O)OCC(C)(C)C2 was tested. Which pIC50 (second compound 0.000949 µM) did it give?
A: 6.29

Q: What about the pIC50 (second compound 0.003 µM) of the same molecule?
A: 6.47

Q: What about the pIC50 (second compound 0.00949 µM) of the same molecule?
A: > 7.50

Q: And the pIC50 (second compound 0.03 µM)?
A: > 7.50

Q: And the pIC50 (second compound 0.0949 µM)?
A: > 7.50

Q: And the pIC50 (second compound 0.3 µM)?
A: > 7.50

Q: What about the viability, T/C [1] of the same molecule?
A: 61.1%

Q: What about the viability, T/C [2] of the same molecule?
A: 60%

Q: And the viability, T/C [3]?
A: 65.7%

Q: What about the viability, T/C [4] of the same molecule?
A: 32.4%

Q: And the viability, T/C [5]?
A: 0.45%

Q: What about the viability, T/C [6] of the same molecule?
A: 1.67%

Q: What about the viability, T/C [7] of the same molecule?
A: 56.6%

Q: And the viability, T/C [8]?
A: 51.5%

Q: What about the viability, T/C [9] of the same molecule?
A: 50%

Q: And the viability, T/C [10]?
A: 27.7%

Q: And the viability, T/C [11]?
A: 0.47%

Q: And the viability, T/C [12]?
A: 1.59%

Q: And the viability, T/C [13]?
A: 47.2%

Q: What about the viability, T/C [14] of the same molecule?
A: 38.9%

Q: And the viability, T/C [15]?
A: 34%

Q: And the viability, T/C [16]?
A: 24.6%

Q: What about the viability, T/C [17] of the same molecule?
A: 0.24%

Q: What about the viability, T/C [18] of the same molecule?
A: 2.02%

Q: And the viability, T/C [19]?
A: 31.3%

Q: What about the viability, T/C [20] of the same molecule?
A: 36.5%

Q: What about the viability, T/C [21] of the same molecule?
A: 31%

Q: What about the viability, T/C [22] of the same molecule?
A: 20.2%

Q: What about the viability, T/C [23] of the same molecule?
A: 0.4%

Q: And the viability, T/C [24]?
A: 1.85%

Q: And the viability, T/C [25]?
A: 27.4%

Q: What about the viability, T/C [26] of the same molecule?
A: 27%

Q: What about the viability, T/C [27] of the same molecule?
A: 24.2%

Q: And the viability, T/C [28]?
A: 16.8%

Q: And the viability, T/C [29]?
A: 0.44%

Q: And the viability, T/C [30]?
A: 1.98%

Q: And the viability, T/C [31]?
A: 23.5%

Q: And the viability, T/C [32]?
A: 27.1%

Q: What about the viability, T/C [33] of the same molecule?
A: 23.1%

Q: What about the viability, T/C [34] of the same molecule?
A: 13.9%

Q: What about the viability, T/C [35] of the same molecule?
A: 0.5%

Q: And the viability, T/C [36]?
A: 1.9%

Q: `CCC(CC)c1cc(NC2CCC(N)C2)n2nccc2n1` (centres undefined) + CCn1c(-c2cccnc2C(C)OC)c2c3cc(ccc31)N1CCOC(CC(NC(=O)C(C(C)C)N(C)C(=O)C3(F)CCN(C(=O)C#CC(C)(C)N(C)C)CC3)C(=O)N3CCCC(N3)C(=O)OCC(C)(C)C2)C1 was tested. Which pIC50 (second compound 0.000949 µM) did it give?
A: 5.84

Q: What about the pIC50 (second compound 0.003 µM) of the same molecule?
A: 5.83

Q: And the pIC50 (second compound 0.00949 µM)?
A: 5.83

Q: And the pIC50 (second compound 0.03 µM)?
A: 5.86

Q: And the pIC50 (second compound 0.0949 µM)?
A: 5.87

Q: What about the pIC50 (second compound 0.3 µM) of the same molecule?
A: 5.98

Q: What about the viability, T/C [1] of the same molecule?
A: 106%

Q: What about the viability, T/C [2] of the same molecule?
A: 103%

Q: What about the viability, T/C [3] of the same molecule?
A: 101%

Q: And the viability, T/C [4]?
A: 72%

Q: And the viability, T/C [5]?
A: 0.76%

Q: And the viability, T/C [6]?
A: 0.94%

Q: And the viability, T/C [7]?
A: 104%

Q: And the viability, T/C [8]?
A: 104%

Q: What about the viability, T/C [9] of the same molecule?
A: 115%

Q: And the viability, T/C [10]?
A: 76.4%

Q: What about the viability, T/C [11] of the same molecule?
A: 0.77%

Q: What about the viability, T/C [12] of the same molecule?
A: 0.9%

Q: And the viability, T/C [13]?
A: 112%

Q: And the viability, T/C [14]?
A: 105%

Q: And the viability, T/C [15]?
A: 101%

Q: And the viability, T/C [16]?
A: 74.9%

Q: And the viability, T/C [17]?
A: 0.96%

Q: And the viability, T/C [18]?
A: 0.75%

Q: And the viability, T/C [19]?
A: 108%

Q: And the viability, T/C [20]?
A: 109%

Q: And the viability, T/C [21]?
A: 115%

Q: And the viability, T/C [22]?
A: 68.9%

Q: What about the viability, T/C [23] of the same molecule?
A: 0.82%

Q: And the viability, T/C [24]?
A: 1.41%

Q: And the viability, T/C [25]?
A: 92.9%

Q: And the viability, T/C [26]?
A: 109%

Q: And the viability, T/C [27]?
A: 94.7%

Q: What about the viability, T/C [28] of the same molecule?
A: 66.9%

Q: What about the viability, T/C [29] of the same molecule?
A: 0.68%

Q: And the viability, T/C [30]?
A: 0.5%

Q: What about the viability, T/C [31] of the same molecule?
A: 78.5%

Q: What about the viability, T/C [32] of the same molecule?
A: 88.7%

Q: What about the viability, T/C [33] of the same molecule?
A: 96.4%

Q: What about the viability, T/C [34] of the same molecule?
A: 51.9%

Q: What about the viability, T/C [35] of the same molecule?
A: 0.87%

Q: What about the viability, T/C [36] of the same molecule?
A: 1.78%
